Laboratory results published in paper PMC12396409, “Screening and hit evaluation of a microbial metabolite library against the pathogenic Plasmodium falciparum and Toxoplasma gondii parasites” (International Journal for Parasitology: Drugs and Drug …, 2025).
Like-named read-outs stand apart in the source and are kept apart here. Where a SMILES comes first, the peptide text is derived from it. Bridges are numbered along the chain shown (N, C = ends). [ ]: non-standard residue; d: D form. The star is where a group is joined. Octatrienoyl(2E,4E,6E) = C/C=C/C=C/C=C/C(=O)*; NMeA = CN[C@@H](C)C(=O)O; GABA = NCCCC(=O)O

How the values were obtained:
[1] = test system: P. falciparum 3D7 parasites; assay: P. falciparum growth inhibition assay, 1-cycle (72 h treatment), SYBR DNA staining (library screen at 2 μg/mL and dose-response); format: cell-based, Plasmodium falciparum; details: for activity at 2 µg/mL: Plasmodium falciparum
[2] = test system: P. falciparum 3D7 parasites; assay: P. falciparum growth inhibition assay, 2-cycle (120 h treatment), delayed-death screen and dose-response; format: cell-based, Plasmodium falciparum; details: for activity at 2 µg/mL: Plasmodium falciparum
[3] = test system: T. gondii RH strain (RH-Tub-eYFP) tachyzoites; assay: microbe, parasite or virus in culture; format: cell-based, Toxoplasma gondii; details: for percent parasite growth at 2 µg/mL: Toxoplasma gondii
[4] = 72 h, T. gondii, 72 h, parasite screen 2 μg/mL, % growth, replicate 1, read-out: Tg_72h_%Growth_Rep1
[5] = 72 h, T. gondii, 72 h, parasite screen 2 μg/mL, % growth, replicate 2, read-out: Tg_72h_%Growth_Rep2
[6] = 3D7, 72 h, P. falciparum, 72 h, parasite screen 2 μg/mL, % growth, replicate 1, read-out: Pf_72h_%Growth_Rep1
[7] = 3D7, 72 h, P. falciparum, 72 h, parasite screen 2 μg/mL, % growth, replicate 2, read-out: Pf_72h_%Growth_Rep2
[8] = 3D7, 120 h, P. falciparum, 120 h, parasite screen 2 μg/mL, % growth, replicate 1, read-out: Pf_120h_%Growth_Rep1
[9] = 3D7, 120 h, P. falciparum, 120 h, parasite screen 2 μg/mL, % growth, replicate 2, read-out: Pf_120h_%Growth_Rep2
[10] = library screen at 2 μg/mL, 72 h, % growth, replicate 1
[11] = library screen at 2 μg/mL, 72 h, % growth, replicate 2
[12] = library screen at 2 μg/mL, 120 h, % growth, replicate 1
[13] = library screen at 2 μg/mL, 120 h, % growth, replicate 2

C=CC(C)(C)c1[nH]cnc1/C=C1/NC(=O)[C@@H]2C[C@@]3(C(C)(C)C=C)c4ccccc4N[C@H]3N2C1=O [Roquefortine E]
Pf_72h_%Growth_Rep1 ([1]; P. falciparum, 72 h, parasite screen 2 μg/mL, % growth, replicate 1): 11.66%
Pf_72h_%Growth_Rep2 ([1]; P. falciparum, 72 h, parasite screen 2 μg/mL, % growth, replicate 2): 6.85%
Pf_120h_%Growth_Rep1 ([2]; P. falciparum, 120 h, parasite screen 2 μg/mL, % growth, replicate 1): 14.59%
Pf_120h_%Growth_Rep2 ([2]; P. falciparum, 120 h, parasite screen 2 μg/mL, % growth, replicate 2): 17.38%
Tg_72h_%Growth_Rep1 ([3]; T. gondii, 72 h, parasite screen 2 μg/mL, % growth, replicate 1): 75.06%
Tg_72h_%Growth_Rep2 ([3]; T. gondii, 72 h, parasite screen 2 μg/mL, % growth, replicate 2): 97.61%

COc1ccc(C[C@H](N)C(=O)N[C@H]2[C@@H](O)[C@H](n3cnc4c(N(C)C)ncnc43)O[C@@H]2CO)cc1 [Puromycin]
activity at 2 µg/mL ([1]; 3D7, P. falciparum, 72 h, parasite screen 2 μg/mL, % growth, replicate 1, read-out: Pf_72h_%Growth_Rep1): 1.82%
activity at 2 µg/mL ([1]; 3D7, P. falciparum, 72 h, parasite screen 2 μg/mL, % growth, replicate 2, read-out: Pf_72h_%Growth_Rep2): 1.65%
activity at 2 µg/mL ([2]; 3D7, P. falciparum, 120 h, parasite screen 2 μg/mL, % growth, replicate 1, read-out: Pf_120h_%Growth_Rep1): -0.01%
activity at 2 µg/mL ([2]; 3D7, P. falciparum, 120 h, parasite screen 2 μg/mL, % growth, replicate 2, read-out: Pf_120h_%Growth_Rep2): 7.14%
percent parasite growth at 2 µg/mL [3, 4]: -0.59%
percent parasite growth at 2 µg/mL [3, 5]: 1.12%

O=c1cc2ccocc-2o1 [BIA-K1792]
Pf_72h_%Growth_Rep1 ([1]; P. falciparum 3D7, 72 h, library screen at 2 μg/mL, % growth, replicate 1): 80.31%
Pf_72h_%Growth_Rep2 ([1]; P. falciparum 3D7, 72 h, library screen at 2 μg/mL, % growth, replicate 2): 115.37%
Pf_120h_%Growth_Rep1 ([2]; P. falciparum 3D7, 120 h, library screen at 2 μg/mL, % growth, replicate 1): 89.46%
Pf_120h_%Growth_Rep2 ([2]; P. falciparum 3D7, 120 h, library screen at 2 μg/mL, % growth, replicate 2): 104.67%
Tg_72h_%Growth_Rep1 ([3]; T. gondii RH, 72 h, library screen at 2 μg/mL, % growth, replicate 1): 114.69%
Tg_72h_%Growth_Rep2 ([3]; T. gondii RH, 72 h, library screen at 2 μg/mL, % growth, replicate 2): 93.25%

CO[C@H]1C[C@@H]2CC[C@@H](C)[C@@](O)(O2)C(=O)C(=O)N2CCCC[C@H]2C(=O)O[C@H]([C@H](C)C[C@@H]2CC[C@@H](O)[C@H](OC)C2)CC(=O)[C@H](C)/C=C(\C)[C@@H](O)[C@@H](OC)C(=O)[C@H](C)C[C@H](C)/C=C/C=C/C=C/1C [Rapamycin]
activity at 2 µg/mL [1, 6]: 86.2%
activity at 2 µg/mL [1, 7]: 116%
activity at 2 µg/mL [2, 8]: 104%
activity at 2 µg/mL [2, 9]: 102%
percent parasite growth at 2 µg/mL [3, 4]: 132%
percent parasite growth at 2 µg/mL [3, 5]: 75.7%

Aflatoxin G2
Pf_72h_%Growth_Rep1 [1]: 83.21%
Pf_72h_%Growth_Rep2 [1]: 86.33%
Pf_120h_%Growth_Rep1 [2]: 98.15%
Pf_120h_%Growth_Rep2 [2]: 97.03%
Tg_72h_%Growth_Rep1 [3]: 134.03%
Tg_72h_%Growth_Rep2 [3]: 98.49%

CC(C)=C[C@H]1C[C@H](C)[C@]2(CC[C@]3(C)C[C@@H]4C(C)=CC(=O)[C@@H]4/C(C=O)=C\C[C@H]32)O1 [Anhydroophiobolin A]
Pf_72h_%Growth_Rep1 [1, 10]: 9.46%
Pf_72h_%Growth_Rep2 [1, 11]: 6.48%
Pf_120h_%Growth_Rep1 [2, 12]: 0.81%
Pf_120h_%Growth_Rep2 [2, 13]: -1.29%
Tg_72h_%Growth_Rep1 [3, 10]: 154.62%
Tg_72h_%Growth_Rep2 [3, 11]: 91.26%

C=CC[C@@H]1/C=C(\C)C[C@H](C)C[C@H](OC)[C@H]2O[C@@](O)(C(=O)C(=O)N3CCCC[C@H]3C(=O)O[C@H](/C(C)=C/[C@@H]3CC[C@@H](O)[C@H](OC)C3)[C@H](C)[C@@H](O)CC1=O)[C@H](C)C[C@@H]2OC [Tacrolimus]
activity at 2 µg/mL [1, 6]: 56.9%
activity at 2 µg/mL [1, 7]: 41.7%
activity at 2 µg/mL [2, 8]: 49.7%
activity at 2 µg/mL [2, 9]: 41%
percent parasite growth at 2 µg/mL [3, 4]: 102%
percent parasite growth at 2 µg/mL [3, 5]: 79.4%

CC(=O)N[C@H]1CCOC1=O [Acetyl-L-homoserine lactone]
Pf_72h_%Growth_Rep1 [1, 10]: 5.19%
Pf_72h_%Growth_Rep2 [1, 11]: 20.05%
Pf_120h_%Growth_Rep1 [2, 12]: 2.96%
Pf_120h_%Growth_Rep2 [2, 13]: 5.45%
Tg_72h_%Growth_Rep1 [3, 10]: 88.39%
Tg_72h_%Growth_Rep2 [3, 11]: 103.34%

CC(C)[C@H]1NC(=O)[C@H](Cc2ccccc2)NC(=O)[C@@H](C(C)C)NC(=O)[C@@H](C)NC(=O)CCCNC(=O)[C@@H](Cc2c[nH]c3ccccc23)NC(=O)[C@@H](C)NC1=O [Unguisin A] (cyclo(F[dV][dA][dW][GABA][dA][dV]))
Pf_72h_%Growth_Rep1 ([1]; P. falciparum, 72 h, screen at 2 μg/mL, replicate 1): 89.83%
Pf_72h_%Growth_Rep2 ([1]; P. falciparum, 72 h, screen at 2 μg/mL, replicate 2): 117.62%
Pf_120h_%Growth_Rep1 ([2]; P. falciparum, 120 h, screen at 2 μg/mL, replicate 1): 110.43%
Pf_120h_%Growth_Rep2 ([2]; P. falciparum, 120 h, screen at 2 μg/mL, replicate 2): -17.05%
Tg_72h_%Growth_Rep1 ([3]; T. gondii, 72 h, screen at 2 μg/mL, replicate 1): 121.37%
Tg_72h_%Growth_Rep2 ([3]; T. gondii, 72 h, screen at 2 μg/mL, replicate 2): 69.01%

CC=CC(C)=CC(C)C(=O)CC(O)CC1CC(=O)NC(=O)C1 (stereo not drawn) [BIA-M1404]
Pf_72h_%Growth_Rep1 ([1]; P. falciparum 3D7, 72 h, parasite screen at 2 μg/mL, % growth, replicate 1): 71.61%
Pf_72h_%Growth_Rep2 ([1]; P. falciparum 3D7, 72 h, parasite screen at 2 μg/mL, % growth, replicate 2): 88.22%
Pf_120h_%Growth_Rep1 ([2]; P. falciparum 3D7, 120 h, parasite screen at 2 μg/mL, % growth, replicate 1): 85.21%
Pf_120h_%Growth_Rep2 ([2]; P. falciparum 3D7, 120 h, parasite screen at 2 μg/mL, % growth, replicate 2): 78.18%
Tg_72h_%Growth_Rep1 ([3]; T. gondii, 72 h, parasite screen at 2 μg/mL, % growth, replicate 1): 4.29%
Tg_72h_%Growth_Rep2 ([3]; T. gondii, 72 h, parasite screen at 2 μg/mL, % growth, replicate 2): 7.26%

COCCC[C@H]1O[C@@](O)([C@H](C)C2CC(OC)C(O)/C=C(C)/C=C(C)/C=C(/C)C(O[C@H]3O[C@H](C)[C@@H](OC)[C@H](O)[C@H]3O)C(C)/C=C(C)/C=C(OC)\C=C(/C)C(=O)O2)[C@H](OC)[C@@H](O)[C@]1(C)O[C@H]1C[C@H](O)[C@H](O[C@H]2C[C@@](C)(O)[C@H](O)[C@@H](C)O2)[C@@H](C)O1 (stereo partly drawn) [Amycolatopsin B]
Pf_72h_%Growth_Rep1 [1, 10]: 44.61%
Pf_72h_%Growth_Rep2 [1, 11]: 41.71%
Pf_120h_%Growth_Rep1 [2, 12]: 16.58%
Pf_120h_%Growth_Rep2 [2, 13]: 9.62%
Tg_72h_%Growth_Rep1 [3, 10]: 0.29%
Tg_72h_%Growth_Rep2 [3, 11]: 0.85%

CN(C)[C@@H]1C(O)=C(C(N)=O)C(=O)[C@@]2(O)C(O)=C3C(=O)c4c(O)cccc4[C@@](C)(O)[C@H]3C[C@@H]12 [Tetracycline]
activity at 2 µg/mL ([1]; 3D7, P. falciparum, 72 h, screen at 2 μg/mL, replicate 1, read-out: Pf_72h_%Growth_Rep1): 62.1%
activity at 2 µg/mL ([1]; 3D7, P. falciparum, 72 h, screen at 2 μg/mL, replicate 2, read-out: Pf_72h_%Growth_Rep2): 83.3%
activity at 2 µg/mL ([2]; 3D7, P. falciparum, 120 h, screen at 2 μg/mL, replicate 1, read-out: Pf_120h_%Growth_Rep1): 164%
activity at 2 µg/mL ([2]; 3D7, P. falciparum, 120 h, screen at 2 μg/mL, replicate 2, read-out: Pf_120h_%Growth_Rep2): 73.9%
percent parasite growth at 2 µg/mL ([3]; 72 h, read-out: Tg_72h_%Growth_Rep1): 103%
percent parasite growth at 2 µg/mL ([3]; 72 h, read-out: Tg_72h_%Growth_Rep2): 101%

CCCCCCCCCCCC(=O)N[C@H]1CCOC1=O [Dodecanoyl-L-homoserine lactone]
Pf_72h_%Growth_Rep1 [1, 10]: 84.60%
Pf_72h_%Growth_Rep2 [1, 11]: 89.07%
Pf_120h_%Growth_Rep1 [2, 12]: 96.32%
Pf_120h_%Growth_Rep2 [2, 13]: 89.02%
Tg_72h_%Growth_Rep1 [3, 10]: 110.87%
Tg_72h_%Growth_Rep2 [3, 11]: 103.60%

C/C=C/C=C/C=C/C(=O)N[C@@H](Cc1ccccc1)C(=O)N[C@H]1COC(=O)[C@@H]2CCCN2C(=O)[C@H](C)NC(=O)[C@H](C)N(C)C(=O)[C@@H]2CCCN2C1=O [A 54556B] ({Octatrienoyl(2E,4E,6E)}-FSP[NMeA]AP; ester 2-C)
Pf_72h_%Growth_Rep1 [1, 10]: 78.68%
Pf_72h_%Growth_Rep2 [1, 11]: 74.34%
Pf_120h_%Growth_Rep1 [2, 12]: 65.42%
Pf_120h_%Growth_Rep2 [2, 13]: 57.54%
Tg_72h_%Growth_Rep1 [3, 10]: 115.90%
Tg_72h_%Growth_Rep2 [3, 11]: 86.45%
